`O=C(CSc1cccs1)C12CC3CC(CC(C3)C1)C2` registered a melting point of 69 to 72 °C.
The compound `CNC(=O)c1cc(NC(=O)c2ccc(C)c(Nc3nccc(-c4cccnc4)n3)c2)cc(C(F)(F)F)c1` displayed a melting point of 245 to 249 °C.
As for `COC(=O)c1ccc(NC(=O)Cc2ccc(OC)c(C34CC5CC(CC(C5)C3)C4)c2)cc1`, the melting point is 146 to 147 °C.
Turning to `CCOCc1nc2c(N)nc3cc(/C=C/S(=O)(=O)c4ccccc4)ccc3c2n1CCCOC(C)C`, the melting point lay within 188 to 190 °C.
Compound `COc1ccc(-c2cc3ccccc3[nH]2)cc1NC(=S)Nc1cc(Cl)cc(Cl)c1` returned a melting point of 199 to 201 °C.
On to `Cc1nc(-n2cc(CCCc3ccccc3)nn2)sc1C(=O)NCc1ccc(F)c(F)c1`, for which the melting point is 81 to 84 °C.
`COc1cc2c(cc1OC)CC(=O)N(CCCN(C)C[C@H]1Cc3cc(OC)c(OC)cc31)CC2`: the melting point fell in the range of 98 to 100 °C.
Consider `O=C(NC/C=C\COc1cc(CN2CCCCC2)ccn1)NC1CC1`, for which the melting point is 102 to 104 °C.
In the case of `O=C1CCCCN1CCCOC1c2ccccc2C(=O)N1c1ccc2ccc(Cl)nc2n1` (stereo not given) it was 140 °C; in that of `CC(C)(C=NO)Cc1ccc(Cl)c(Cl)c1`, 84 °C.
`CCCNC(=O)C(C#N)=C(SC)SC` came in with a melting point of 65 to 66 °C.
For `COc1ncnc(-c2cc([N+](=O)[O-])c(C#N)cc2F)c1Cl` the value was 161 to 162 °C.
In turn, `COc1ccc(NC(=O)Nc2ccc(C(=O)O)cc2)cc1C12CC3CC(CC(C3)C1)C2` had a melting point of 140 to 141 °C.
Take `OC(CN1CCCCC1)c1cc(-c2ccccc2)on1` (stereo not given): the melting point lay in the range of 104 to 106 °C.
In turn, `O=c1c(-c2nnn[nH]2)coc2ccccc12` returned a melting point of 284 to 285 °C.
In turn, `C=CCN(CC=C)c1nc(NC(=O)OCc2ccccc2)n2oc(=O)nc2n1` registered a melting point of 171 to 173 °C.
`C=CCn1c2c(c3cc(OCCN(C)C)ccc31)C(=O)c1cc(OC)c(OC)cc1-2` had a melting point of 138 °C.
The compound `CC1(COC2(C(F)(F)F)CN(C3CC3)C(=O)Nc3ccc(Cl)cc32)CC1` (stereo not given) registered a melting point of 166 to 167 °C.
In the case of `S=C(NCCCCN(Cc1ccc(Cl)c(Cl)c1)c1ccccn1)NCCCn1ccnc1` it was 112 to 114 °C; in that of `CC(=O)N1c2ccccc2C=Cc2ccccc21`, 121 °C; in that of `COC(=O)c1ccc(C)cc1N`, 41 to 43 °C.
Consider `O=C(O)CCC1(c2ccc(Cl)c(Cl)c2)CCC(=O)NC1=O` (single isomer, unassigned; (+)), for which the melting point was 201 °C.
For `COc1ccccc1-n1c(=O)[nH]c2c(C(N)=O)nc(-c3ccnc(O)c3)nc21` the value was 360 to 362 °C; for `Cc1nc2c(n1C1CC1)CCCC2=O`, 132 °C; for `CC(C)(C)n1cc(-c2ccc(S(=O)c3ccccc3)cc2)c2c(N)ncnc21` (stereo not given), 180 to 182 °C.
The compound `CC(=O)OC1CSC(Oc2cnccc2C(F)(F)F)C(OC(C)=O)C1OC(C)=O` (stereo not given) came in with a melting point of 198 °C.
Regarding `CCOCc1nc2c(N)nc3cc(OCc4cccc([N+](=O)[O-])c4)ccc3c2n1CC(C)C`, the melting point lay within 162 to 164 °C.
`O=Cc1cc(Cl)ccc1Oc1ccccc1[N+](=O)[O-]` displayed a melting point of 103 to 105 °C.
In the case of `Cc1c(F)c(N2CCC(N)C2)cc2c1c(=O)c(C(=O)O)cn2C1CC1` (stereo not given), the melting point was above 300 °C.
For the compound `C[C@@H]1CN(c2ccc(C(F)(F)F)nc2)C[C@H](C)N1CC(=O)N1CC=C(c2ccc3c(c2)OCCO3)CC1`, the melting point lay within 200 to 201 °C.
Regarding `CC(C)c1oc(C=Cc2ccccc2)nc1CC(=O)O`, the melting point was in the range of 155 to 156 °C.
`Cc1nc2c(Cl)cccc2c(=O)n1C1CCC(=O)NC1=O` (stereo not given) had a melting point of 290 to 292 °C.
In the case of `CS(=O)c1cncc(-c2nc(=O)c3ccccc3s2)n1` (stereo not given) it was 228 to 230 °C.
In turn, `CCCCCCCCCCCCCCCCCCOc1ccc(C(C)=O)cc1` displayed a melting point of 69 to 70 °C.
Take `COc1cc(OC)nc(OC(C(=O)O)C(C)(C)C#N)n1` (stereo not given): the melting point was 142 to 150 °C.
The compound `Cc1cn(-c2cc(C=O)c(N)c(C(F)(F)F)c2)c(C)n1` had a melting point of 200 to 202 °C.
On to `O=C1N(Cc2ccc(Cl)cc2)c2ccccc2C1(O)c1cccs1` (stereo not given), for which the melting point fell in the range of 140 to 143 °C.
Compound `CCOC(=O)Cc1nc(N)cc(Cl)n1` had a melting point of 127 to 128 °C.
`O=c1[nH]c2cc(Cl)ccc2c(O)c1-c1cccc(Oc2ccccc2)c1` came in with a melting point of 303 to 306 °C.
In the case of `COC(=O)CSCc1cccc(-c2nc(=O)c3ccccc3s2)n1` it was 108 to 110 °C; in that of `C[C@H]1[C@@H](C(C)(C)O)CCN1c1ccc(C#N)c2sccc12`, 146 to 147 °C; in that of `CC(=O)SC1CN(C(C(=O)C2CC2)c2ccccc2F)C1` (stereo not given), 49 to 52 °C.
`CC(C)CCCC(C)C1CCC2C3C=CC4=CC(=O)C5OC5C4(C)C3CCC12C` (stereo not given): the melting point is 107 to 109 °C.
On to `CCCCCCC(CCC(=O)O)CC(=O)O` (stereo not given), for which the melting point was in the range of 70 to 71 °C.
Compound `O=C1OC(=Cc2ccc3ccccc3c2)C(=O)C(c2ccc(Cl)cc2)=C1O` showed a melting point of 274 to 275 °C.
In the case of `Brc1ccc2c(c1)N=C(N1CCN(Cc3ccccc3)CC1)c1cccc3c1N2CC3`, the melting point lay within 129 to 131 °C.
In the case of `O=C1NC(=O)c2c1c(-c1c(O)cccc1Cl)cc1[nH]c3ccc(O)cc3c21` it was 228 to 235 °C; in that of `CCOC(=O)c1cnc2ccc3nc(S(C)(=O)=O)sc3c2c1Cl`, 170 to 179 °C.
Consider `O=C(O)CNC(=O)Nc1ccc([N+](=O)[O-])cc1`, for which the melting point was in the range of 213 to 214 °C.
Turning to `CCNC1(c2ccccc2Cl)C(=O)N(Cc2ccc(C(=O)NC(C)(C)CO)cc2)c2ccc(Cl)cc21` (stereo not given), the melting point was 170 to 172 °C.
For `Cc1ccc(C)n1-c1cc2[nH]c(=O)c(=O)n(CC(=O)O)c2cc1Cl`, the melting point was above 265 °C.
For the compound `COC(=O)C1(NC(=O)Cc2cc(Br)c(F)cc2C)CCN(OC)CC1`, the melting point was 192 to 193 °C.
For the compound `CC(=O)Nc1cc2c(cc1C#N)C=CC(C)(C)O2`, the melting point is 136 to 137 °C.
In the case of `CC1(C)c2cc(OS(C)(=O)=O)ccc2OC1O` (stereo not given) it was 69 to 72 °C; in that of `Cc1cccc(NC(=O)CS)c1`, 58 to 60 °C; in that of `CCC(=O)NCCc1c[nH]c2cc(Cl)c(OC)cc12`, 100 to 101 °C.
In turn, `CCCc1nc(S(C)=O)c(C(=O)OCC)n1Cc1cc2c(cc1Cl)OCO2` (stereo not given) returned a melting point of 187 °C.
For `COc1ccc2c(cccc2[C@H]2CO[C@H](CCCNC(=O)OCC(N)=O)OC2)c1` the value was 148 to 150 °C.
As for `CN(Cc1ccccn1)C(=S)Nc1ccc(C#N)cc1`, the melting point was determined as 171 °C.
`CCOC(=O)c1cc2cc(OC(F)(F)F)cc(N)c2[nH]1` returned a melting point of 190 to 191 °C.
Compound `CC(C)COC(=O)CC1CC(c2ccc(C#N)cc2)=NO1` (single isomer, unassigned; (-)) came in with a melting point of 98 to 100 °C.
For `CCOCc1nc2c(N)nc3ccccc3c2n1CCCCS(=O)(=O)NC1CCCCC1`, the melting point fell in the range of 197 to 198 °C.
In the case of `COc1cccc(CC2SCCCS2)c1` it was 54 to 56 °C; in that of `COc1ccc(-n2cnc3ccc(C(=O)NN)cc32)cc1`, 196 to 197 °C.
`O=C(OCc1ccccc1)N1CCC(c2nc(CO)c(-c3ccc(Cl)cc3)o2)CC1` came in with a melting point of 97 to 99 °C.
In turn, `O=C(NCCCCN1C2CCC1CN(c1ccc(Cl)cc1)C2)C(F)(F)F` displayed a melting point of 83 to 85 °C.
The compound `c1coc(-c2ccc(-c3cn([C@H]4CN5CCC4CC5)nn3)s2)c1` came in with a melting point of 180 °C.
`CCCCSCC(=O)N(Cc1cccnc1)C(C)(C)C` displayed a melting point of 55 to 56 °C.
`O=C1c2cccc3c([N+](=O)[O-])c(Br)cc(c23)C(=O)N1O` showed a melting point of 232 to 233 °C.
Turning to `COc1cc2c(cc1OC)=C(CCCl)OCC(C)(C)C=2`, the melting point fell in the range of 66 to 67 °C.
Turning to `O=C(O)c1nccc(-c2ccccc2)c1C(=O)O`, the melting point lay in the range of 146 to 148 °C.
Turning to `CN(C)Cc1nncn1-c1ccc(Br)cc1C(=O)c1ccccn1`, the melting point fell in the range of 145 to 146 °C.
For `CSc1cccc(Nc2nc(OCC3CCCCC3)c3[nH]cnc3n2)c1` the value was 190 to 192 °C; for `CCC(=O)NC(C)(C)CSc1cc(C)c(Cl)cc1C`, 78 to 81 °C; for `O=C1NC(=O)N2Cc3ccccc3CC12` (stereo not given), 225 to 231 °C.
In the case of `O=c1oc(-c2ccccc2)cc(O)c1N(Cc1ccccc1)Cc1ccccc1` it was 130 to 135 °C; in that of `CC(C)(C)OC(=O)NS(N)(=O)=O`, 130 to 131 °C.
For `COc1ccc(-n2ncc(C(=O)N[C@H](C)[C@](O)(Cn3cncn3)c3ccc(F)cc3F)c2C)cc1`, the melting point was 176 to 177 °C.
In the case of `c1ccc(-c2ccnc(-c3ccc4cc[nH]c4c3)n2)cc1`, the melting point is 160 °C.
`OCc1cccc(-c2nn(-c3ccc(F)cc3F)c3c2C2CCC3C2)c1` (stereo not given) registered a melting point of 113 to 115 °C.
In turn, `CCc1c(-c2ccccc2)ncc2c(N3CCCCC3)nnc(N3CCCCC3)c12` displayed a melting point of 64 to 65 °C.
`CC(=O)c1ccccc1OCc1cccc(S(N)(=O)=O)c1`: the melting point lay in the range of 124 to 125 °C.
As to `O=C(O)CP(=O)(O)CCNC(=O)c1ccccc1`, the melting point was in the range of 54 to 57 °C.
For `OCc1ncc(-c2ccc(Cl)cc2)o1` the value was 100 to 104 °C.
On to `N#Cc1ccccc1NC(=O)Nc1ccc(S(N)(=O)=O)cc1`, for which the melting point is 256 to 258 °C.
With `CCCCCCCCCCCCNC(=O)CCNc1cccc(O)c1`, the melting point is below 40 °C.
Compound `CC(C)(C)c1ccc(COCCCCCCNC(=O)c2cc(-c3cccc(C(F)(F)F)c3)c(OCC(=O)O)c(-c3cccc(C(F)(F)F)c3)c2)cc1` had a melting point of 156 to 158 °C.
`CCn1c(=O)oc2cc(N3C[C@H](C(=O)NC)OC3=O)ccc21` displayed a melting point of 263 to 265 °C.
In the case of `CCOc1cc2c(-c3ccnc(Cl)c3)c(CO)c(CO)cc2cc1OC`, the melting point was in the range of 123 to 126 °C.
As to `CC(C)CCCC(C)C1CCC2(CC(=O)O)C3=C(CCC12C)C1(C)CCC(O)CC1CC3` (stereo not given), the melting point lay within 191 to 193 °C.

For orientation: melting point means the temperature, or range, at which the solid turns liquid.

(Values after a melting point compilation (Tetko et al.; mined from patent text by program, amines drawn as free bases though some values may be those of a salt).)
